Patent US8563555B2, “Pharmaceutical compositions containing a crystalline form of posaconazole” (Sandoz AG, priority 2008, dated 2013)
≈ marks a conversion by molar mass, not a printed value. Where “and” joins values, the source holds several entries; their conditions need not be identical. Identical values can stand only once.

What was measured:
[1] = Particle size distribution (Malvern, laser diffraction) in suspension; type: physicochemical; settings: for Mean particle size (D4,3-value) / Median particle size (d (0.5)-value): non-micronized form, in suspension, after 5 min ultrasonic treatment
Protocol: Crystalline form Y in a non-micronized form as obtained by Example 1 was used to prepare 25 ml of a suspension as follows:
The suspension was prepared analogously to the method described in Example 6 up to and including the addition of glycerol and liquid glucose. Subsequently, titanium oxide was added under mixing with a suitable homogenizer, followed by the addition of the cherry flavour and of the remaining portion of 56% of the final amount of purified water under mixing until a uniform suspension was obtained.
25 ml of a similar suspension, but without cherry flavour and using 12.148 g of purified water, was prepared analoguously using non-micronized crystalline form I of posaconazole.
The particle size distribution (Malvern) was measured according to the USP <429> and EP 2.9.31. based on the diffraction of laser by particles using a Mastersizer 2000S liquid dispersion system. The particle size measurement was started after ultrasonic treatment of the sample for 5 min.

[2] = Specific surface measurement, BET method; type: physicochemical; settings: for Specific Surface: nitrogen at 77° K, non-micronized
Protocol: Specific surface measurement was performed with the equipment NOVA 2000 as commercially available from Quantachrome Instruments using the BET method and Nitrogen as the absorbed gas at 77° K (i.e. −196.15° C.) as described e.g. by Medema J, Campagne A.: A Simple Method to Determine Cumulative Surface-Area Distributions of Porous Solids; Journal of Catalysis, Volume 8, Issue 2, pp. 120, 1967.

[3] = Stability of an aqueous suspension of form Y; type: physicochemical; settings: 120 mg in 3 ml water, room temperature, 4 days
Protocol: 120 mg form Y were suspended in 3 ml water and the suspension was stirred at room temperature.

[4] = Moisture sorption isotherm; type: physicochemical; settings: 0-95% RH, 25° C.
Protocol: The moisture sorption isotherm was recorded with a SPS-11 moisture sorption analyzer (MD Mess-technik, Ulm, D). The measurement cycle was started at 0% relative humidity (RH), increased in 10% steps up to 90% RH and in a 5% step up to 95% RH. The equilibrium condition for each step was set to a constant mass ±0.003% over 49 min. The temperature was 25±0.1° C.

[5] = Solid state stability of form Y (HPLC assay, polymorphic form); type: physicochemical
Protocol: HPLC assay was performed by applying the following conditions: • Column: ZORBAX XDB-C18 Rapid Resolution HT, 1.8 μm, 50×4.6 mm (Agilent Technologies) • Eluent A: Dilute 2 ml of acetic acid (99-100%) with water and fill up to 1000 ml with water. Adjust pH to 6.5 with 2.5% ammonia. • Eluent B: water/acetonitrile=50/50 (v/v) • Flow rate: 0.8 ml/min • Temperature: 40° C. • Detection: UV at 260 nm • Gradient:
The solid state stability of form Y was determined by storing approximately 1.0 g of the material in a glass bottle at a) 60° C./100% Relative Humidity (RH), open exposure, for 24 hours and b) at 140° C., closed, for 3 days.
The material was assayed by HPLC for final content and degradation products.

[6] = Dissolution from suspension, USP <711> apparatus II; type: physicochemical; settings: suspension of Example 7, paddle 25 rpm, 0.3% SLS aqueous solution
Protocol: Non-micronized form Y and non-micronized form I were incorporated into formulations having compositions and being prepared according to Example 7.
Dissolution of Form Y and Form I from those formulations was tested according to USP 32 (2009) method <711> (USP apparatus II (Paddle); 25 rpm; dissolution medium: 0.3% SLS aqueous solution). Posaconzole concentrations were determined with an online photometer (UV absorption at 260 nm).

[7] = Stability of form Y within a pharmaceutical formulation (XRPD); type: physicochemical; settings: suspension stored at room temperature for 7 weeks
Protocol: 25 ml of a suspension containing form Y were prepared as follows:
40% of the final amount of Polysorbat 80 and 40% of the final amount of simethicon were mixed and dissolved and/or dispersed in about 12% of the final amount of purified water and homogenized with Ultra Turrax (30 seconds; 27,000 rpm). Subsequently, 1 g of form Y of posaconazole were suspended or dispersed in this mixture under homogenization by Ultra Turrax (27,000 rpm, 2 minutes). The remaining 60% of Polysorbat 80 and of simethicon and 32% of the final amount of the purified water were added and mixed followed by the addition of sodium benzoate, sodium citrate dehydrate and citric acid monohydrate. After further mixing, xanthan gum was added to the mixture under stirring, followed by a 30 minutes phase of hydratization without mixing. Subsequently, glycerol and liquid glucose and of the remaining portion of 56% of the final amount of purified water were added under mixing until a uniform suspension was obtained.
This suspension was stored at room temperature for 7 weeks. A sample of approximately 1 g of the suspension was dried under vacuum over night at room temperature. […]

[8] = Equilibrium solubility method in water; type: physicochemical
Protocol: The solubility of form Y was determined by the equilibrium solubility method, which employed a saturated solution of form Y, obtained by stirring 250 mg form Y in 6 ml water over night. The sample was filtered through a 0.45 μm membrane filter and the concentration of form Y in the filtrate was measured using a Perkin Elmer Lambda 35 UV/VIS spectrophotometer (λ=260 nm).

[9] = cited from earlier work
[10] = listed as crystalline form Y of posaconazole
[11] = 60° C./100% RH, open exposure, 24 hours

## CC[C@@H]([C@H](C)O)n1ncn(-c2ccc(N3CCN(c4ccc(OC[C@@H]5CO[C@@](Cn6cncn6)(c6ccc(F)cc6F)C5)cc4)CC3)cc2)c1=O [Crystalline Form I, posaconazole]
[1]
  Mean particle size (D4,3-value): 35.1 μm
  Median particle size (d (0.5)-value): 31.3 μm
[2]; listed as Crystalline Form I of posaconazole
  Specific Surface: 1.5 m^2/g and 1.6 m^2/g

## CC[C@@H]([C@H](C)O)n1ncn(-c2ccc(N3CCN(c4ccc(OC[C@@H]5CO[C@@](Cn6cncn6)(c6ccc(F)cc6F)C5)cc4)CC3)cc2)c1=O [Crystalline Form Y, posaconazole]
[1]; non-micronized
  fold smaller mean particle size compared to non-micronized form I: about 4 fold
  fold smaller median particle size compared to non-micronized form I: about 5 fold
[1]
  Mean particle size (D4,3-value): 9.9 μm
  Median particle size (d (0.5)-value): 6.0 μm
[1]; [10]
  Mean particle size (D4,3-value): about 10±2 μm
  Median particle size (d (0.5)-value): about 6±2 μm
[3]
  physicochemical properties of the solid after stirring in water: the same as the physicochemical properties of form Y obtained in Example 1
[4]
  water uptake: ≤ 0.4%
[5]; [11]
  HPLC assay (% initial): 99.9%
  degradation: No significant degradation observed
[5]; 140° C., closed, 3 days
  HPLC assay (% initial): 99.9%
  degradation: No significant degradation observed
[5]; 24 hours at 100% RH, 60° C.
  polymorphic conversion: not converted into another polymorphic form
[2]
  fold larger specific area compared to crystalline form I: about 2.4 fold
[2]; listed as Crystalline Form Y of posaconazole
  Specific Surface: 3.6 m^2/g and 3.7 m^2/g
[2]; [10]
  Specific Surface: about 4±1 m^2/g
[6]
  dissolution compared to non-micronized form I: clearly faster dissolution
[7]
  polymorphic conversion in suspension (XRPD): no conversion to another polymorphic form had occurred
[8]
  water solubility of form Y relative to form I (times higher): about two
[8]; thermodynamic from solid, saturated solution stirred over night, 0.45 μm filtrate, UV 260 nm
  solubility: 1.5 µg/mL (≈ 2.14 µM)

## CC[C@@H]([C@H](C)O)n1ncn(-c2ccc(N3CCN(c4ccc(OC[C@@H]5CO[C@@](Cn6cncn6)(c6ccc(F)cc6F)C5)cc4)CC3)cc2)c1=O [posaconazole, 2,5-anhydro-1,3,4-trideoxy-2-C-(2,4-difluorophenyl)-4-[[4-[4-[4-[1-[(1S,2S)-1-ethyl-2-hydroxypropyl]-1,5-dihydro-5-oxo-4H-1,2,4-triazol-4-yl]phenyl]-1-piperazinyl]phenoxy]methyl]-1-(1H-1,2,4-triazol-1-yl)-D-threopentitol]
[9]
  log P: > 3
